Molecular target: T1, PuORh (putrescine oxidase) (Rhodococcus erythropolis, UniProt B0F9F6)
T1 sequence (B0F9F6 1-453): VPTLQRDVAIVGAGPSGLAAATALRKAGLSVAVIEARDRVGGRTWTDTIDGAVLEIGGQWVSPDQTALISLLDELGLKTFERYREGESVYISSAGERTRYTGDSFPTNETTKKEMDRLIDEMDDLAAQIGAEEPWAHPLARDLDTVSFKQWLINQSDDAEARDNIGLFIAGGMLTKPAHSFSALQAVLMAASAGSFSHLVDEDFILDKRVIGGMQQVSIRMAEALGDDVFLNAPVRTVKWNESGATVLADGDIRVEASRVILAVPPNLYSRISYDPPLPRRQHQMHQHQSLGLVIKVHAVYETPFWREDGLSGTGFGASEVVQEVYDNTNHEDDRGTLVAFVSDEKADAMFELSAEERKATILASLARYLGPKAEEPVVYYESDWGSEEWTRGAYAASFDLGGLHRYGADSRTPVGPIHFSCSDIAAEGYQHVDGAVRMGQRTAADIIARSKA
Assay: absorbance spectrum, release by trichloroacetic acid and heat
Format: binding
Details: non-covalent; pH 8.0, 25°C for spectra

## Cc1cc2nc3c(=O)[nH]c(=O)nc-3n(C[C@H](O)[C@H](O)[C@H](O)COP(=O)(O)OP(=O)(O)OC[C@H]3O[C@@H](n4cnc5c(N)ncnc54)[C@H](O)[C@@H]3O)c2cc1C [FAD]
  absorbance spectrum, release by trichloroacetic acid and heat: the FAD cofactor in PuORh, like in PuOMr, is not covalently bound
